Tested on: 817829-284-R-J1-PDC multi-cell spheroid viability
Experiment: Anticancer human tumor 817829-284-R-J1-PDC patient-derived colon adenocarcinoma cell line growth inhibition [PI3K]
Conditions: for IC50: curve of first compound; for viability, T/C: stronger effect = lower value; active means viability on the fitted dose curve at most 10% of control; inactive means the rest
Procedure, shortened: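 Viability of mixed-cell spheroids was determined after exposure to pairwise combinations, one partner being inavolisib, alpelisib, duvelisib or copanlisib. Highest tested concentration matched clinical Cmax where known and 10 microM where not, descending in half-log steps.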

[1] = second compound 0.0316 µM, first compound 0.0316 µM
[2] = second compound 0.0316 µM, first compound 0.1 µM
[3] = second compound 0.0316 µM, first compound 0.316 µM
[4] = second compound 0.0316 µM, first compound 1 µM
[5] = second compound 0.0316 µM, first compound 3.16 µM
[6] = second compound 0.0316 µM, first compound 10 µM
[7] = second compound 0.1 µM, first compound 0.0316 µM
[8] = second compound 0.1 µM, first compound 0.1 µM
[9] = second compound 0.1 µM, first compound 0.316 µM
[10] = second compound 0.1 µM, first compound 1 µM
[11] = second compound 0.1 µM, first compound 3.16 µM
[12] = second compound 0.1 µM, first compound 10 µM
[13] = second compound 0.316 µM, first compound 0.0316 µM
[14] = second compound 0.316 µM, first compound 0.1 µM
[15] = second compound 0.316 µM, first compound 0.316 µM
[16] = second compound 0.316 µM, first compound 1 µM
[17] = second compound 0.316 µM, first compound 3.16 µM
[18] = second compound 0.316 µM, first compound 10 µM
[19] = second compound 1 µM, first compound 0.0316 µM
[20] = second compound 1 µM, first compound 0.1 µM
[21] = second compound 1 µM, first compound 0.316 µM
[22] = second compound 1 µM, first compound 1 µM
[23] = second compound 1 µM, first compound 3.16 µM
[24] = second compound 1 µM, first compound 10 µM
[25] = second compound 3.16 µM, first compound 0.0316 µM
[26] = second compound 3.16 µM, first compound 0.1 µM
[27] = second compound 3.16 µM, first compound 0.316 µM
[28] = second compound 3.16 µM, first compound 1 µM
[29] = second compound 3.16 µM, first compound 3.16 µM
[30] = second compound 3.16 µM, first compound 10 µM
[31] = second compound 10 µM, first compound 0.0316 µM
[32] = second compound 10 µM, first compound 0.1 µM
[33] = second compound 10 µM, first compound 0.316 µM
[34] = second compound 10 µM, first compound 1 µM
[35] = second compound 10 µM, first compound 3.16 µM
[36] = second compound 10 µM, first compound 10 µM
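Further: spheroids exposed to agents for seven days before readout.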
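Wherever viability, T/C is given: percent of vehicle DMSO control viability which is 100%.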

C=CC(=O)N1CCN(c2nc(=O)n(-c3c(C)ccnc3C(C)C)c3nc(-c4c(O)cccc4F)c(F)cc23)C(C)C1 (stereo not given) + Cc1nc(NC(=O)N2CCCC2C(N)=O)sc1-c1ccnc(C(C)(C)C(F)(F)F)c1
56.5 nM: IC50 (second compound 10 µM)
inactive: viability, T/C [1] 75.1% | viability, T/C [2] 75.8% | viability, T/C [3] 114% | viability, T/C [4] 77% | viability, T/C [5] 91% | viability, T/C [6] 54.7% | viability, T/C [7] 68.7% | viability, T/C [8] 70.2% | viability, T/C [9] 68.1% | viability, T/C [10] 53.5% | viability, T/C [11] 91.9% | viability, T/C [12] 33.6% | viability, T/C [13] 80.1% | viability, T/C [14] 63.8% | viability, T/C [15] 95.7% | viability, T/C [16] 55.7% | viability, T/C [17] 66% | viability, T/C [18] 41.2% | viability, T/C [19] 81.5% | viability, T/C [20] 65.3% | viability, T/C [21] 84.3% | viability, T/C [22] 63.1% | viability, T/C [23] 92.3% | viability, T/C [24] 31.4% | viability, T/C [25] 71.2% | viability, T/C [26] 61.8% | viability, T/C [27] 55.3% | viability, T/C [28] 75.8% | viability, T/C [29] 85.2% | viability, T/C [30] 50.9% | viability, T/C [31] 51.5% | viability, T/C [32] 49.2% | viability, T/C [33] 40.8% | viability, T/C [34] 51.6% | viability, T/C [35] 51.1% | viability, T/C [36] 37.4%
5980 nM: IC50 (second compound 0.1 µM)
6170 nM: IC50 (second compound 0.316 µM)
6270 nM: IC50 (second compound 1 µM)
> 10000 nM: IC50 (second compound 0.0316 µM) | IC50 (second compound 3.16 µM)

CC(C)NCC(C(=O)N1CCN(c2ncnc3c2C(C)CC3O)CC1)c1ccc(Cl)cc1 (stereo not given) + Cc1nc(NC(=O)N2CCCC2C(N)=O)sc1-c1ccnc(C(C)(C)C(F)(F)F)c1
inactive: viability, T/C [1] 80.1% | viability, T/C [2] 62.1% | viability, T/C [3] 51.1% | viability, T/C [4] 21.8% | viability, T/C [5] 19.6% | viability, T/C [6] 13.5% | viability, T/C [7] 82.5% | viability, T/C [8] 72.9% | viability, T/C [9] 32.4% | viability, T/C [10] 21.5% | viability, T/C [11] 19.4% | viability, T/C [12] 13.1% | viability, T/C [13] 55.5% | viability, T/C [14] 107% | viability, T/C [15] 30.5% | viability, T/C [16] 24.4% | viability, T/C [17] 17.3% | viability, T/C [18] 11% | viability, T/C [19] 69.3% | viability, T/C [20] 66.3% | viability, T/C [21] 29.6% | viability, T/C [22] 23% | viability, T/C [23] 16.6% | viability, T/C [24] 8.39% | viability, T/C [25] 69.3% | viability, T/C [26] 40.2% | viability, T/C [27] 23.9% | viability, T/C [28] 19.2% | viability, T/C [29] 15.3% | viability, T/C [31] 52.8% | viability, T/C [32] 39.5% | viability, T/C [33] 29% | viability, T/C [34] 24.6% | viability, T/C [35] 12.5%
193 nM: IC50 (second compound 0.1 µM)
203 nM: IC50 (second compound 0.316 µM)
69.2 nM: IC50 (second compound 3.16 µM)
249 nM: IC50 (second compound 0.0316 µM)
active: viability, T/C [30] 6.49% | viability, T/C [36] 6.18%
165 nM: IC50 (second compound 1 µM)
38.8 nM: IC50 (second compound 10 µM)

CC(Cn1ccc(-c2ccc(C#N)c(Cl)c2)n1)NC(=O)c1cc(C(C)O)[nH]n1 (stereo not given) + Cc1nc(NC(=O)N2CCCC2C(N)=O)sc1-c1ccnc(C(C)(C)C(F)(F)F)c1
2620 nM: IC50 (second compound 1 µM)
inactive: viability, T/C [1] 72.1% | viability, T/C [2] 92.1% | viability, T/C [3] 118% | viability, T/C [4] 82.5% | viability, T/C [5] 64.8% | viability, T/C [6] 67.4% | viability, T/C [7] 42.2% | viability, T/C [8] 81.5% | viability, T/C [9] 96.1% | viability, T/C [10] 103% | viability, T/C [11] 85.2% | viability, T/C [12] 71.1% | viability, T/C [13] 56.9% | viability, T/C [14] 94.3% | viability, T/C [15] 72.3% | viability, T/C [16] 72.1% | viability, T/C [17] 75.8% | viability, T/C [18] 54.4% | viability, T/C [19] 53.1% | viability, T/C [20] 89.8% | viability, T/C [21] 80.5% | viability, T/C [22] 71.5% | viability, T/C [23] 42.1% | viability, T/C [24] 49.5% | viability, T/C [25] 66.7% | viability, T/C [26] 55.2% | viability, T/C [27] 50.1% | viability, T/C [28] 89.7% | viability, T/C [29] 42% | viability, T/C [30] 57.2% | viability, T/C [31] 55.8% | viability, T/C [32] 31.7% | viability, T/C [33] 47.2% | viability, T/C [34] 40.9% | viability, T/C [35] 59.4% | viability, T/C [36] 35%
< 31.6 nM: IC50 (second compound 0.1 µM) | IC50 (second compound 10 µM)
> 10000 nM: IC50 (second compound 0.0316 µM) | IC50 (second compound 0.316 µM) | IC50 (second compound 3.16 µM)

CCN1CCN(Cc2ccc(Nc3ncc(F)c(-c4cc(F)c5nc(C)n(C(C)C)c5c4)n3)nc2)CC1 + Cc1nc(NC(=O)N2CCCC2C(N)=O)sc1-c1ccnc(C(C)(C)C(F)(F)F)c1
56.9 nM: IC50 (second compound 3.16 µM)
638 nM: IC50 (second compound 0.0316 µM)
inactive: viability, T/C (second compound 0.0316 µM, first compound 0.00316 µM) 75.4% | viability, T/C (second compound 0.0316 µM, first compound 0.01 µM) 55.4% | viability, T/C [1] 90.8% | viability, T/C [2] 52.5% | viability, T/C [3] 66.5% | viability, T/C [4] 42.1% | viability, T/C (second compound 0.1 µM, first compound 0.00316 µM) 91.5% | viability, T/C (second compound 0.1 µM, first compound 0.01 µM) 70.8% | viability, T/C [7] 112% | viability, T/C [8] 46.7% | viability, T/C [9] 64.4% | viability, T/C [10] 59.1% | viability, T/C (second compound 0.316 µM, first compound 0.00316 µM) 76.4% | viability, T/C (second compound 0.316 µM, first compound 0.01 µM) 53.1% | viability, T/C [13] 74.9% | viability, T/C [14] 49.9% | viability, T/C [15] 48.2% | viability, T/C [16] 47.1% | viability, T/C (second compound 1 µM, first compound 0.00316 µM) 76% | viability, T/C (second compound 1 µM, first compound 0.01 µM) 63.5% | viability, T/C [19] 56.5% | viability, T/C [20] 47.8% | viability, T/C [21] 51.5% | viability, T/C [22] 43.7% | viability, T/C (second compound 3.16 µM, first compound 0.00316 µM) 53.1% | viability, T/C (second compound 3.16 µM, first compound 0.01 µM) 63.5% | viability, T/C [25] 61% | viability, T/C [26] 39.4% | viability, T/C [27] 41.6% | viability, T/C [28] 42.6% | viability, T/C (second compound 10 µM, first compound 0.00316 µM) 66.1% | viability, T/C (second compound 10 µM, first compound 0.01 µM) 35.1% | viability, T/C [31] 51.9% | viability, T/C [32] 38.4% | viability, T/C [33] 46.7% | viability, T/C [34] 41%
122 nM: IC50 (second compound 1 µM)
325 nM: IC50 (second compound 0.316 µM)
6.96 nM: IC50 (second compound 10 µM)
316 nM: IC50 (second compound 0.1 µM)

Cn1nccc1Nc1nccc(-c2ccn(C(CO)c3ccc(Cl)c(F)c3)c(=O)c2)n1 (stereo not given) + Cc1nc(NC(=O)N2CCCC2C(N)=O)sc1-c1ccnc(C(C)(C)C(F)(F)F)c1
inactive: viability, T/C [1] 83% | viability, T/C [2] 66.9% | viability, T/C [3] 92.2% | viability, T/C [4] 90.7% | viability, T/C [5] 81.6% | viability, T/C [6] 41.6% | viability, T/C [7] 79.8% | viability, T/C [8] 77.3% | viability, T/C [9] 76.3% | viability, T/C [10] 75.3% | viability, T/C [11] 63.2% | viability, T/C [12] 26.6% | viability, T/C [13] 87.8% | viability, T/C [14] 99.5% | viability, T/C [15] 72% | viability, T/C [16] 74.6% | viability, T/C [17] 81.6% | viability, T/C [18] 30.6% | viability, T/C [19] 68.6% | viability, T/C [20] 69% | viability, T/C [21] 62.1% | viability, T/C [22] 107% | viability, T/C [23] 60.9% | viability, T/C [24] 28.5% | viability, T/C [25] 54.2% | viability, T/C [26] 102% | viability, T/C [27] 86.1% | viability, T/C [28] 87.3% | viability, T/C [29] 67.3% | viability, T/C [30] 21.6% | viability, T/C [31] 109% | viability, T/C [32] 103% | viability, T/C [33] 101% | viability, T/C [34] 94.2% | viability, T/C [35] 69% | viability, T/C [36] 16.4%
4880 nM: IC50 (second compound 3.16 µM)
4810 nM: IC50 (second compound 10 µM)
4650 nM: IC50 (second compound 1 µM)
4800 nM: IC50 (second compound 0.1 µM)
7870 nM: IC50 (second compound 0.0316 µM)
6440 nM: IC50 (second compound 0.316 µM)

From PubChem BioAssay AID1963969 (Molecular Pharmacology Branch, DTP, NCI, 2024)
